One test concerns A549 (NSCLC). Nature of the test: Anti-proliferative activity (Cell-Titre luminescence) against A549 non-small cell lung cancer cells. Format: cell-based. To be noted: Homo sapiens, A549, 72 h, 72 h exposure, Cell-Titre luminescent reagent. The protocol:
(§1) The ability of compounds of the invention to inhibit the proliferation of cancer cells representative of non-small cell lung cancer and ovarian cancer (Table 2), pancreatic cancer, colorectal cancer and prostate cancer (Table 3) was assessed. Briefly, a predetermined number of cells as calculated from cell growth assays for each of the cell lines employed were seeded into their respective culture medium (using ATCC culture parameters—http://www.atcc.org) and cultured for 24 h at 37° C. and 5% CO2 in 96-well culture plates. Once attached, each cell line was then exposed to various concentrations of each respective analogue (30, 10, 3, 1, 0.3 and 0.1 μM), cultured for a further 72 h and exposed to Cell-Titre luminescent reagent (100 μL/well) for a further 30 min. Luminescence was captured using an EnVision multilabel reader and the data for each analogue concentration compared against no treatment control. Cell viability was normalised to control (vehicle alone) and dose response curves, and half maximal effective concentration (EC50) values were determined using Graph Pad Prism 6 (nonlinear regression sigmoidal dose-response variable slope).

The test system of a further test is A2780 (ovarian). Nature of the test: Anti-proliferative activity (Cell-Titre luminescence) against A2780 ovarian cancer cells. The format is cell-based. Particulars: Homo sapiens, A2780, 72 h, 72 h exposure, Cell-Titre luminescent reagent. The protocol:
as §1

`OCCCNc1nc(NCCc2cccc(F)c2)nc2ccccc12` [Compound 94, 3-((2-((3-fluorophenethyl)amino)quinazolin-4-yl)amino)propan-1-ol]: the IC50 (usually the point on the concentration scale where inhibition reaches its midpoint) in the test with A549 (NSCLC) was determined as 5.57 µM; in the test with A2780 (ovarian) it was 4.59 µM.

Take `CN(C)CCNc1nc(-n2cccc2)nc2ccccc12` [Compound 99, N^1-(2-(1H-pyrrol-1-yl)quinazolin-4-yl)-N^2,N^2-dimethylethane-1,2-diamine]: the IC50 with A549 (NSCLC) stood at 22.2 µM; with A2780 (ovarian) it was 10.3 µM.

`CN(C)CCCNc1nc(-c2ccsc2)nc2ccccc12` [Compound 100, N^1,N^1-dimethyl-N^3-(2-(thiophen-3-yl)quinazolin-4-yl)propane-1,3-diamine]: the results for the IC50 with A549 (NSCLC) and in the test with A2780 (ovarian) were 19.4 µM and 11.8 µM, respectively.

`CN(C)CCCNc1nc(-c2ccc[nH]2)nc2ccccc12` [Compound 101, N^1-(2-(1H-pyrrol-2-yl)quinazolin-4-yl)-N^3,N^3-dimethylpropane-1,3-diamine]: the IC50 in the test on A549 (NSCLC) is 11.6 µM; in the test with A2780 (ovarian) it was 12.5 µM.

Consider `CN(C)CCCNc1nc(-c2cc[nH]c2)nc2ccccc12` [Compound 102, N^1-(2-(1H-pyrrol-3-yl)quinazolin-4-yl)-N^3,N^3-dimethylpropane-1,3-diamine], for which the IC50 with A549 (NSCLC) was determined as 7.45 µM; with A2780 (ovarian) it was 1.32 µM.

On to `CN(C)CCCNc1nc(-n2cccc2)nc2ccccc12` [Compound 103, N^1-(2-(1H-pyrrol-1-yl)quinazolin-4-yl)-N^3,N^3-dimethylpropane-1,3-diamine], for which the IC50 with A549 (NSCLC) amounted to 24.1 µM; in the test with A2780 (ovarian), 16.5 µM.

`c1csc(-c2nc(NCCc3c[nH]cn3)c3ccccc3n2)c1` [Compound 104, N-(2-(1H-imidazol-4-yl)ethyl)-2-(thiophen-2-yl)quinazolin-4-amine]: the IC50 with A549 (NSCLC) and in the test on A2780 (ovarian) was over 30 µM each time.

As for `c1ccc2c(NCCc3c[nH]cn3)nc(-c3ccsc3)nc2c1` [Compound 105, N-(2-(1H-imidazol-4-yl)ethyl)-2-(thiophen-3-yl)quinazolin-4-amine], the values for the IC50 in the test with A549 (NSCLC) and with A2780 (ovarian) were 24.1 µM and 9.05 µM, respectively.

With `c1c[nH]c(-c2nc(NCCc3c[nH]cn3)c3ccccc3n2)c1` [Compound 106, N-(2-(1H-imidazol-4-yl)ethyl)-2-(1H-pyrrol-2-yl)quinazolin-4-amine], the figures for the IC50 in the test with A549 (NSCLC) and in the test on A2780 (ovarian) were 15.6 µM and 8.43 µM, respectively.

In the case of `c1ccc2c(NCCc3c[nH]cn3)nc(-c3cc[nH]c3)nc2c1` [Compound 107, N-(2-(1H-imidazol-4-yl)ethyl)-2-(1H-pyrrol-3-yl)quinazolin-4-amine], the IC50 in the test on A549 (NSCLC) was found to be 9.4 µM; in the test on A2780 (ovarian) it was 1.95 µM.

Take `c1ccc2c(NCCc3c[nH]cn3)nc(-n3cccc3)nc2c1` [Compound 108, N-(2-(1H-imidazol-4-yl)ethyl)-2-(1H-pyrrol-1-yl)quinazolin-4-amine]: the IC50 in the test with A549 (NSCLC) came to 9.53 µM; with A2780 (ovarian), 5.79 µM.

As to `OCCCNc1nc(-c2ccc[nH]2)nc2ccccc12` [Compound 109, 3-((2-(1H-pyrrol-2-yl)quinazolin-4-yl)amino)propan-1-ol], the IC50 in the test on A549 (NSCLC) came to 21.1 µM; in the test with A2780 (ovarian), 13 µM.

As to `OCCCNc1nc(-c2cc[nH]c2)nc2ccccc12` [Compound 110, 3-((2-(1H-pyrrol-3-yl)quinazolin-4-yl)amino)propan-1-ol], the figures for the IC50 with A549 (NSCLC) and with A2780 (ovarian) were 9.19 µM and 4.87 µM, respectively.

On to `OCCCNc1nc(-n2cccc2)nc2ccccc12` [Compound 111, 3-((2-(1H-pyrrol-1-yl)quinazolin-4-yl)amino)propan-1-ol], for which the IC50 in the test with A549 (NSCLC) and with A2780 (ovarian) was over 30 µM throughout.

In the case of `FC(F)(F)c1cccc(CCNc2nc(NCCN3CCOCC3)c3ccccc3n2)c1` [Compound 113, N^4-(2-morpholinoethyl)-N^2-(3-(trifluoromethyl)phenethyl)quinazoline-2,4-diamine], the IC50 in the test on A549 (NSCLC) stood at 8.79 µM; in the test on A2780 (ovarian), 2.54 µM.

Regarding `FC(F)(F)c1cccc(CCNc2nc(NCCN3CCCCC3)c3ccccc3n2)c1` [Compound 114, N^4-(2-(piperidin-1-yl)ethyl)-N^2-(3-(trifluoromethyl)phenethyl)quinazoline-2,4-diamine], the IC50 with A549 (NSCLC) was determined as 2.36 µM; in the test on A2780 (ovarian) it was 0.937 µM.

Consider `FC(F)(F)c1cccc(CCNc2nc(NCCN3CCCC3)c3ccccc3n2)c1` [Compound 115, N^4-(2-(pyrrolidin-1-yl)ethyl)-N^2-(3-(trifluoromethyl)phenethyl)quinazoline-2,4-diamine], for which the results for the IC50 in the test with A549 (NSCLC) and with A2780 (ovarian) were 2.52 µM and 1.24 µM, respectively.

`COCCNc1nc(NCCc2cccc(C(F)(F)F)c2)nc2ccccc12` [Compound 116, N^4-(2-methoxyethyl)-N^2-(3-(trifluoromethyl)phenethyl)quinazoline-2,4-diamine]: the IC50 with A549 (NSCLC) turned out to be 3.6 µM; in the test on A2780 (ovarian) it was 1.39 µM.

As to `COCCCNc1nc(NCCc2cccc(C(F)(F)F)c2)nc2ccccc12` [Compound 117, N^4-(3-methoxypropyl)-N^2-(3-(trifluoromethyl)phenethyl)quinazoline-2,4-diamine], the results for the IC50 in the test on A549 (NSCLC) and in the test on A2780 (ovarian) were 3.05 µM and 1.62 µM, respectively.

Take `NCCNc1nc(NCCc2cccc(C(F)(F)F)c2)nc2ccccc12` [Compound 118, N^4-(2-aminoethyl)-N^2-(3-(trifluoromethyl)phenethyl)quinazoline-2,4-diamine]: the IC50 with A549 (NSCLC) was found to be 4.05 µM; in the test with A2780 (ovarian), 1.92 µM.

As for `NCCCNc1nc(NCCc2cccc(C(F)(F)F)c2)nc2ccccc12` [Compound 119, N^4-(3-aminopropyl)-N^2-(3-(trifluoromethyl)phenethyl)quinazoline-2,4-diamine], the IC50 in the test with A549 (NSCLC) was 2.46 µM; in the test with A2780 (ovarian), 0.759 µM.

Take `CN1CCN(CCNc2nc(NCCc3ccccc3C(F)(F)F)nc3ccccc23)CC1` [Compound 120, N^4-(2-(4-methylpiperazin-1-yl)ethyl)-N^2-(2-(trifluoromethyl)phenethyl)quinazoline-2,4-diamine]: the values for the IC50 with A549 (NSCLC) and in the test with A2780 (ovarian) were 5.28 µM and 1.4 µM, respectively.

Consider `CN1CCN(CCNc2nc(NCCc3ccccc3F)nc3ccccc23)CC1` [Compound 121, N^2-(2-fluorophenethyl)-N^4-(2-(4-methylpiperazin-1-yl)ethyl)quinazoline-2,4-diamine], for which the IC50 with A549 (NSCLC) is 4 µM; in the test on A2780 (ovarian), 2.38 µM.

In the case of `Cc1ccccc1CCNc1nc(NCCN2CCN(C)CC2)c2ccccc2n1` [Compound 122, N^2-(2-methylphenethyl)-N^4-(2-(4-methylpiperazin-1-yl)ethyl)quinazoline-2,4-diamine], the IC50 with A549 (NSCLC) turned out to be 3.17 µM; with A2780 (ovarian) it was 2.68 µM.

As for `CN1CCN(CCNc2nc(NCCc3ccccc3Cl)nc3ccccc23)CC1` [Compound 123, N^2-(2-chlorophenethyl)-N^4-(2-(4-methylpiperazin-1-yl)ethyl)quinazoline-2,4-diamine], the IC50 is 3.36 µM in the test on A549 (NSCLC) and 2.38 µM in the test on A2780 (ovarian).

`CN1CCN(CCNc2nc(NCCc3cccc(C#N)c3)nc3ccccc23)CC1` [Compound 126, 3-(2-((4-((2-(4-methylpiperazin-1-yl)ethyl)amino)quinazolin-2-yl)amino)ethyl)benzonitrile]: the results for the IC50 in the test with A549 (NSCLC) and with A2780 (ovarian) were 14.8 µM and 2.5 µM, respectively.

Turning to `Cc1ccc(CCNc2nc(NCCN3CCN(C)CC3)c3ccccc3n2)cc1` [Compound 127, N^2-(4-methylphenethyl)-N^4-(2-(4-methylpiperazin-1-yl)ethyl)quinazoline-2,4-diamine], the IC50 in the test on A549 (NSCLC) came to 2.54 µM; in the test with A2780 (ovarian) it was 2.62 µM.

On to `CN1CCN(CCNc2nc(NCCc3ccc(Cl)cc3)nc3ccccc23)CC1` [Compound 130, N^2-(4-chlorophenethyl)-N^4-(2-(4-methylpiperazin-1-yl)ethyl)quinazoline-2,4-diamine], for which the IC50 turned out to be 10.9 µM with A549 (NSCLC) and 2.88 µM in the test on A2780 (ovarian).

Regarding `CN1CCN(CCNc2nc(NCCc3ccc(C#N)cc3)nc3ccccc23)CC1` [Compound 131, 4-(2-((4-((2-(4-methylpiperazin-1-yl)ethyl)amino)quinazolin-2-yl)amino)ethyl)benzonitrile], the IC50 stood at 11.5 µM with A549 (NSCLC) and 3 µM with A2780 (ovarian).

With `CN1CCN(CCNc2nc(NCCc3ccc(O)cc3)nc3ccccc23)CC1` [Compound 132, N^2-(4-hydroxyphenethyl)-N^4-(2-(4-methylpiperazin-1-yl)ethyl)quinazoline-2,4-diamine], the IC50 amounted to 8.03 µM in the test on A549 (NSCLC) and 4.71 µM with A2780 (ovarian).

Consider `CN1CCN(CCNc2nc(NCCc3ccc(N)cc3)nc3ccccc23)CC1` [Compound 133, N^2-(4-aminophenethyl)-N^4-(2-(4-methylpiperazin-1-yl)ethyl)quinazoline-2,4-diamine], for which the IC50 in the test on A549 (NSCLC) turned out to be 14.3 µM; in the test on A2780 (ovarian), 7.17 µM.

Consider `CN1CCN(CCNc2nc(NCCc3ccc(N(C)C)cc3)nc3ccccc23)CC1` [Compound 134, N^2-(4-(dimethylamino)phenethyl)-N^4-(2-(4-methylpiperazin-1-yl)ethyl)quinazoline-2,4-diamine], for which the IC50 was 8.86 µM in the test with A549 (NSCLC) and 2.68 µM in the test on A2780 (ovarian).

In the case of `CN1CCN(CCNc2nc(NCCc3ccc(Cl)c(Cl)c3)nc3ccccc23)CC1` [Compound 135, N^2-(3,4-dichlorophenethyl)-N^4-(2-(4-methylpiperazin-1-yl)ethyl)quinazoline-2,4-diamine], the figures for the IC50 in the test with A549 (NSCLC) and with A2780 (ovarian) were 3.19 µM and 0.66 µM, respectively.

For the compound `CN1CCN(CCNc2nc(NCCc3ccc(F)c(F)c3)nc3ccccc23)CC1` [Compound 136, N^2-(3,4-difluorophenethyl)-N^4-(2-(4-methylpiperazin-1-yl)ethyl)quinazoline-2,4-diamine], the IC50 came to 4.77 µM in the test on A549 (NSCLC) and 1.03 µM with A2780 (ovarian).

The record behind these values is patent US20230339866A1, “Quinazoline compounds and the use thereof in the treatment of cancer” (TROBIO THERAPEUTICS PTY LTD, priority 2020, published 2023).
